System: PDE7
Assay: PDE7 Assay Procedure ([3H]-cAMP SPA)
Assay type: biochemical
Settings: PDE7 inhibition, 15 nM 3',5'[3H]-cAMP, 1 hour at room temperature
Protocol: All compounds are resuspended in DMSO at a stock concentration of 10 mM. […] All dilutions are performed in 96 well plates.
For each reaction, 10 microliters of the diluted compounds are poured into “low binding” assay plates. 80 microliters of a reaction mixture containing 50 mM Tris pH 7.5, 8.3 mM MgCl2, 1.7 mM EGTA, and 15 nM 3′,5′[3H]-cAMP (around 150000 dpm) are added to each well. The reaction is initiated by adding 10 microliters of a solution containing PDE7 to the reaction mixture. The plate is then incubated under stirring for 1 hour at room temperature. After incubation the reaction is stopped with 50 microlitres (0.89 mg) of PDE SPA beads (Amersham Pharmacia Biotech RPNQ0150), and the resulting mixture is allowed to settle for 20 minutes before counting in a microtitre plate counter.

IC50 [nM] | Compound
< 1000 | COc1ccc(-c2nc(N3CCOCC3)c3c(C)c(C#N)sc3n2)cc1OC [Example 31, 2-(3,4-Dimethoxyphenyl)-5-methyl-4-morpholin-4-ylthieno[2,3-d]pyrimidine-6-carbonitrile]

System: not given
Assay: not given
Settings: not given

melting point [°C] | Compound
194 to 196 | COc1ccc(-c2nc(N3CCOCC3)c3c(C)c(C#N)sc3n2)cc1OC [Example 31, 2-(3,4-Dimethoxyphenyl)-5-methyl-4-morpholin-4-ylthieno[2,3-d]pyrimidine-6-carbonitrile]
67 to 70 | COc1ccc(Cc2nc(N3CCOCC3)c3c(C)c(C#N)sc3n2)cc1OC [Example 92, 2-(3,4-Dimethoxybenzyl)-5-methyl-4-morpholin-4-ylthieno[2,3-d]pyrimidine-6-carbonitrile]
153 to 155 | Cc1c(C#N)sc2nc(CCc3ccccc3)nc(NC3CCC3)c12 [Example 128, 4-(Cyclobutylamino)-5-methyl-2-(2-phenylethyl)thieno[2,3-d]pyrimidine-6-carbonitrile]
173 to 175 | CCN1CCN(c2nc(-c3ccc(OC)cc3)nc3sc(C#N)c(C)c23)CC1 [Example 2, 4-(4-Ethylpiperazin-1-yl)-2-(4-methoxyphenyl)-5-methylthieno[2,3-d]pyrimidine-6-carbonitrile]
146 to 148 | COc1cc(Cc2nc(NC(C)(C)C)c3c(C)c(C#N)sc3n2)cc(OC)c1OC [Example 116, 4-(tert-Butylamino)-5-methyl-2-(3,4,5-trimethoxybenzyl)thieno[2,3-d]pyrimidine-6-carbonitrile]
129 to 131 | COc1cc(Cc2nc(NCC(C)C)c3c(C)c(C#N)sc3n2)cc(OC)c1OC [Example 135, 4-(Isobutylamino)-5-methyl-2-(3,4,5-trimethoxybenzyl)thieno[2,3-d]pyrimidine-6-carbonitrile]
191 to 193 | COc1cc(-c2nc(NC(C)C)c3c(C)c(C#N)sc3n2)cc(OC)c1OC [Example 70, 4-(Isopropylamino)-5-methyl-2-(3,4,5-trimethoxyphenyl)thieno[2,3-d]pyrimidine-6-carbonitrile]
199 to 201 | CCN(CC)c1nc(-c2ccc3c(c2)OCO3)nc2sc(C#N)c(C)c12 [Example 36, 2-(1,3-Benzodioxol-5-yl)-4-(diethylamino)-5-methylthieno[2,3-d]pyrimidine-6-carbonitrile]
> 250 | COc1cc(-c2nc(N3CCOCC3)c3c(C)c(C#N)sc3n2)cc(OC)c1OC [Example 51, 5-Methyl-4-morpholin-4-yl-2-(3,4,5-trimethoxy-phenyl)-thieno[2,3-d]pyrimidine-6-carbonitrile]
194 to 195 | Cc1c(C#N)sc2nc(-c3ccncc3)nc(N(C)CCO)c12 [Example 42, 4-[(2-Hydroxyethyl)(methyl)amino]-5-methyl-2-pyridin-4-ylthieno[2,3-d]pyrimidine-6-carbonitrile]

— patent publication US7662814B2, “4-aminothieno[2,3-d]pyrimidine-6-carbonitrile derivatives as PDE7 inhibitors” (Laboratorios Almirall, S.A., priority 2003, dated 2010)
